{"source": "ChEMBL document CHEMBL5370585", "about": "“Exploration and Biological Evaluation of 1,3-Diamino-7H-pyrrol[3,2-f]quinazoline Derivatives as Dihydrofolate Reductase Inhibitors” (J Med Chem, 2023)", "key": {"[1]": {"assay": "Toxicity in BALB/c mouse xenografted with mouse EMT6 cells at 24 mg/kg, ip administered every 3 days for 14 consecutive days", "assay_type": "organism-based", "details": "in vivo, 336 h, time 14 day"}, "[2]": {"assay": "Toxicity in BALB/c mouse xenografted with mouse EMT6 cells assessed as effect on body weight at 20 mg/kg, ip measured on day 1 (reference value: 18.5 +/-0.5g)", "assay_type": "organism-based", "details": "in vivo, 24 h, time 1 day"}, "[3]": {"assay": "Toxicity in BALB/c mouse xenografted with mouse EMT6 cells assessed as effect on body weight at 20 mg/kg, ip measured on day 14 (reference value: 21.6 +/-0.6g)", "assay_type": "organism-based", "details": "in vivo, 336 h, time 14 day"}, "EMT6 [4]": {"system": "EMT6", "assay": "Antitumor activity against mouse EMT6 cells xenografted in BALB/c mouse model assessed as tumor weight at 20 mg/kg,ip administered every 3 days for 14 consecutive days (reference value: 1.53 +/-0.26g)", "assay_type": "functional", "details": "time 14 day"}, "EMT6 [5]": {"system": "EMT6", "assay": "Antitumor activity against mouse EMT6 cells xenografted in BALB/c mouse model assessed as tumor growth inhibition at 20 mg/kg,ip administered every 3 days for 14 consecutive days relative to control", "assay_type": "functional", "parameters": "scale not given: the % may be the effect or the level left", "details": "time 14 day"}}}
{"smiles": "CC(=O)O[C@H]1C(=O)[C@@]2(C)[C@H]([C@H](OC(=O)c3ccccc3)[C@]3(O)C[C@H](OC(=O)[C@H](O)[C@@H](NC(=O)c4ccccc4)c4ccccc4)C(C)=C1C3(C)C)[C@]1(OC(C)=O)CO[C@@H]1C[C@@H]2O", "note": "[PACLITAXEL]", "values": [{"measurement": "Activity", "setting": "[1]", "result": "Non-Toxic"}, {"measurement": "Activity", "setting": "[2]", "result": 18.6, "unit": "g"}, {"measurement": "Activity", "setting": "[3]", "result": 20.1, "unit": "g"}, {"measurement": "Activity", "setting": "EMT6 [4]", "result": 0.71, "unit": "g"}, {"measurement": "Activity", "setting": "EMT6 [5]", "result": 53.2, "unit": "%"}]}
